# Results published in patent US6071908A (priority 1995, dated 2000).
# Where a name gives a salt, the structure may show the parent alone. Read-outs that look alike come from different tables or passages of the source.
# Key:
# UV4 cells = test: cells; format: cell-based; conditions: Cricetulus griseus
# SKOV3 cells = test: cells; format: cell-based; conditions: Homo sapiens
# [1] = UV4, light or radiation study, 4 h, read-out: IC50, P (unirradiated prodrug)
# [2] = UV4, 4 h, read-out: IC50, E (authentic effector)
# [3] = SK-OV-3, light or radiation study, 4 h, read-out: IC50, P (unirradiated prodrug)
# [4] = SK-OV-3, 4 h, read-out: IC50, E (authentic effector)
Structure (SMILES),IC50 (UV4 cells; [1]),IC50 (UV4 cells; [2]),IC50 (SKOV3 cells; [3]),IC50 (SKOV3 cells; [4])
"C[N+](C)(Cc1ccc([N+](=O)[O-])cc1)c1ccc2c(c1)N(S(C)(=O)=O)CC2CCl (centres unmarked) [Compound 11, 3-(chloromethyl)-6-[N,N-dimethyl-N-(4-nitrobenzyl)-ammonio]-1-(methanesulfonyl)indoline chloride]",1140 ± 122 µM,–,–,–
"CN(C)c1ccc2c(c1)N(S(C)(=O)=O)CC2CCl (centres unmarked) [Compound 12, reference compound]",–,15 ± 6 µM,–,–
"C[N+](C)(CCNC(=O)c1cccc2cc3ccccc3nc12)Cc1ccc([N+](=O)[O-])cc1 [Compound 15, 2-[N-(acridin-4-yl)carbonyl]aminoethyl-(dimethyl)-4-nitrobenzylammonium bromide]",> 150 µM,–,> 150 µM,–
"C[N+](C)(CCNC(=O)c1cccc2cc3ccccc3nc12)Cc1ccc([N+](=O)[O-])s1 [Compound 16, 2-[N-(acridin-4-yl)carbonyl]aminoethyl-(dimethyl)-(5-nitro-2-thienyl)methylammonium chloride]",40 ± 8 µM,–,169 ± 58 µM,–
"Cc1cccc2c(N)c3cccc(C(=O)NCC[N+](C)(C)Cc4ccc([N+](=O)[O-])cc4)c3nc12 [Compound 17, 2-[N-(9-amino-5-methylacridin-4-yl)carbonyl]aminoethyl-(dimethyl)-4-nitrobenzylammonium bromide]",0.78 µM,–,4 ± 0.1 µM,–
"Cc1cccc2c(N)c3cccc(C(=O)NCC[N+](C)(C)Cc4ccccc4[N+](=O)[O-])c3nc12 [Compound 18, 2-[N-(9-amino-5-methylacridin-4-yl)carbonyl]aminoethyl-(dimethyl)-2-nitrobenzyl]ammonium chloride]",3.1 µM,–,–,–
"Cc1cccc2c(N)c3cccc(C(=O)NCC[N+](C)(C)Cc4ccc([N+](=O)[O-])s4)c3nc12 [Compound 19, 2-[N-(9-amino-5-methylacridin-4-yl)carbonyl]aminoethyl-(dimethyl)-5-nitro-2-thienylmethylammonium chloride]",0.16 ± 0.03 µM,–,–,–
"Cc1cccc2c(N)c3cccc(C(=O)NCC[N+](C)(C)Cc4nc(N5CCOCC5)sc4[N+](=O)[O-])c3nc12 [Compound 20, 2-[N-(9-amino-5-methylacridin-4-yl)carbonyl]aminoethyl-(dimethyl)-2-[4-morpholino-5-nitro-4-thiazolylmethyl]ammonium chloride]",1 ± 0.3 µM,–,–,–
"Cc1cccc2c(N)c3cccc(C(=O)NCC[N+](C)(C)Cc4ccc([N+](=O)[O-])n4C)c3nc12 [Compound 21, 2-(N-[9-amino-5-methylacridin-5-yl]carbonyl)aminoethyl-(dimethyl)[1-methyl-5-nitro-2-pyrrolyl]methylammonium chloride]",2 ± 0.4 µM,–,–,–
"Cc1cccc2c(N)c3cccc(C(=O)NCC[N+](C)(C)Cc4c([N+](=O)[O-])ncn4C)c3nc12 [Compound 22, 2-(N-[9-amino-5-methylacridin-4-yl]carbonyl)aminoethyl-(dimethyl)-(1-methyl-4-nitro-5-imidazolyl)methylammonium chloride]",1.9 ± 0.4 µM,–,–,–
"CN(C)CCNc1ccc(NCC[N+](C)(C)Cc2ccc([N+](=O)[O-])cc2)c2c1C(=O)c1c(O)ccc(O)c1C2=O [Compound 27, 1-[(2-(4-nitrobenzyl)dimethylammonium)ethylamino]-4-[(2-dimethylamino)ethylamino]-5,8-dihydroxy-9,10-anthracenedione chloride]",0.27 ± 0.04 µM,–,9.7 µM,–
"CN(C)CCNC(=O)c1cccc2cc3ccccc3nc12 [Compound 37, N-[(dimethylamino)ethyl]acridine-4-carboxamide, reference compound]",–,0.49 ± 0.11 µM,–,3.4 ± 0.8 µM
"Cc1cccc2c(N)c3cccc(C(=O)NCCN(C)C)c3nc12 [Compound 38, (N,N-dimethylaminoethyl)-9-amino-5-methylacridine-4-carboxamide, reference compound]",–,0.011 µM,–,0.046 ± 0.002 µM
"CN(C)CCNc1ccc(NCCN(C)C)c2c1C(=O)c1c(O)ccc(O)c1C2=O [Compound 46, 1,4-bis[(2-dimethylamino)-ethylamino]-5,8-dihydroxy-9,10-anthracenedione, reference compound]",–,0.0021 µM,–,0.074 ± 0.0004 µM
"NCCNCCCNC(=O)c1cccc2cc3ccccc3nc12 [Compound 47, N-[3-[(2-Aminoethyl)amino]propyl]acridine-4-carboxamide trihydrochloride, reference compound]",–,1.6 ± 0.4 µM,–,1.6 ± 0.3 µM
